Usually IC50 stands for the concentration at which inhibition is half-maximal.

In ChEMBL document CHEMBL5321287, “Discovery, Synthesis, and Evaluation of Novel Dual Inhibitors of a Vascular Endothelial Growth Factor Receptor and Poly(ADP-Ribose) Polymerase for BRCA Wild-Type Breast Cancer Therapy” (J Med Chem, 2023) one finds IC50, Activity and inhibition data, which are given here for one compound.

Active and inactive are the calls of the source. The calls are words filed in the database; no cut-off is given here. Some results are limits rather than exact numbers.

One test deals with HCC1937. In words: Antiproliferative activity against human HCC1937 cells assessed as cell growth inhibition.
For test [1], the system named is MDA-MB-231. In words: Induction of HR DNA repair in human MDA-MB-231 cells xenografted in BALB/c nude mouse assessed as decrease in BRCA1 level at 50 mg/kg, po for 14 days in presence of 1:1 of compound:Olaparib by H and E staining based IHC analysis. It counts as functional, organism-based. The conditions noted are these: time 14.0 day.
Test [2] has as its system MDA-MB-231. Nature of the test: Induction of DNA damage in human MDA-MB-231 cells assessed as increase in gamma-H2AX level at 4 uM incubated for 48 hrs by DAPI staining based immunofluorescence analysis. Format: functional, cell-based.
Another test has as its system HUVEC. Nature of the test: cells. The conditions noted are these: Homo sapiens, 48 h.
Test [3] has as its target Vascular endothelial growth factor receptor 2 (Homo sapiens, UniProt P35968). The conditions noted are these: MDA-MB-231, dose 25-50 mg/kg, route po, time 14.0 day.
In test [4] the test system is MDA-MB-231. In words: Antimigratory activity in human MDA-MB-231 cells assessed as downregulation of MMP-2 level at 4 uM incubated for 2 days in presence of 1:1 of compound:Olaparib by immunoblot analysis. Format: functional, cell-based. Conditions: time 2.0 day. (In general: Immunoblotting shows a protein as a band on a membrane.)
The test system of test [5] is MDA-MB-231. In words: Induction of DNA damage in human MDA-MB-231 cells xenografted in BALB/c nude mouse assessed as increase in gamma-H2AX level at 50 mg/kg, po for 14 days in presence of 1:1 of compound:Olaparib by Western blot analysis. Format: functional, organism-based. Conditions: time 14.0 day.
In test [6] the test system is MCF7. Nature of the test: Antimigratory activity in human MCF7 cells assessed as downregulation of MMP-2 level at 4 uM incubated for 2 days in presence of 1:1 of compound:Olaparib by immunoblot analysis. It counts as functional, cell-based. Conditions: time 2.0 day.
Test [7] has as its system MDA-MB-231. Nature of the test: Induction of HR DNA repair in human MDA-MB-231 cells xenografted in BALB/c nude mouse assessed as decrease in RAD51 level at 50 mg/kg, po for 14 days in presence of 1:1 of compound:Olaparib by H and E staining based IHC analysis. Format: functional, organism-based. Conditions: time 14.0 day. For orientation: Xenograft models place foreign cells or tissue in a host animal.

For test [8], the system named is MDA-MB-231. In words: Inhibition of colony formation in human MDA-MB-231 cells at 4 uM incubated for 10 days in presence of 1:1 of compound:Olaparib by crystal violet staining based assay. It counts as functional, cell-based. The conditions noted are these: time 10.0 day.
Test [9] has as its system MCF7. Nature of the test: Antiproliferative activity against human MCF7 cells assessed as cell growth inhibition.
Test [10] relates to MCF7. Nature of the test: cells. The conditions noted are these: Homo sapiens.
The subject of test [11] is MDA-MB-231. Nature of the test: Downregulation of PAR expression in human MDA-MB-231 cells xenografted in BALB/c nude mouse at 25 to 50 mg/kg, po for 14 days in presence of 1:1 of compound:Olaparib by Western blot analysis. Format: functional, organism-based. Conditions: dose 25-50 mg/kg, time 14.0 day.
For test [12], the system named is MCF7. Nature of the test: Antimigratory activity in human MCF7 cells assessed as upregulation of E-cadherin level at 4 uM in presence of 1:1 of compound:Olaparib by DAPI staining based immunofluorescence analysis. It counts as functional, cell-based.
The test system of test [13] is MCF7. Nature of the test: Induction of apoptosis in human MCF7 cells assessed as increase in cleaved caspase-3 level at 4 uM incubated for 2 days in presence of 1:1 of compound:Olaparib by immunoblot analysis. It counts as functional, cell-based. The conditions noted are these: time 2.0 day.
For test [14], the system named is MDA-MB-231. Nature of the test: cells. The conditions noted are these: Homo sapiens.

Chain of Vascular endothelial growth factor receptor 2 (P35968 whole entry): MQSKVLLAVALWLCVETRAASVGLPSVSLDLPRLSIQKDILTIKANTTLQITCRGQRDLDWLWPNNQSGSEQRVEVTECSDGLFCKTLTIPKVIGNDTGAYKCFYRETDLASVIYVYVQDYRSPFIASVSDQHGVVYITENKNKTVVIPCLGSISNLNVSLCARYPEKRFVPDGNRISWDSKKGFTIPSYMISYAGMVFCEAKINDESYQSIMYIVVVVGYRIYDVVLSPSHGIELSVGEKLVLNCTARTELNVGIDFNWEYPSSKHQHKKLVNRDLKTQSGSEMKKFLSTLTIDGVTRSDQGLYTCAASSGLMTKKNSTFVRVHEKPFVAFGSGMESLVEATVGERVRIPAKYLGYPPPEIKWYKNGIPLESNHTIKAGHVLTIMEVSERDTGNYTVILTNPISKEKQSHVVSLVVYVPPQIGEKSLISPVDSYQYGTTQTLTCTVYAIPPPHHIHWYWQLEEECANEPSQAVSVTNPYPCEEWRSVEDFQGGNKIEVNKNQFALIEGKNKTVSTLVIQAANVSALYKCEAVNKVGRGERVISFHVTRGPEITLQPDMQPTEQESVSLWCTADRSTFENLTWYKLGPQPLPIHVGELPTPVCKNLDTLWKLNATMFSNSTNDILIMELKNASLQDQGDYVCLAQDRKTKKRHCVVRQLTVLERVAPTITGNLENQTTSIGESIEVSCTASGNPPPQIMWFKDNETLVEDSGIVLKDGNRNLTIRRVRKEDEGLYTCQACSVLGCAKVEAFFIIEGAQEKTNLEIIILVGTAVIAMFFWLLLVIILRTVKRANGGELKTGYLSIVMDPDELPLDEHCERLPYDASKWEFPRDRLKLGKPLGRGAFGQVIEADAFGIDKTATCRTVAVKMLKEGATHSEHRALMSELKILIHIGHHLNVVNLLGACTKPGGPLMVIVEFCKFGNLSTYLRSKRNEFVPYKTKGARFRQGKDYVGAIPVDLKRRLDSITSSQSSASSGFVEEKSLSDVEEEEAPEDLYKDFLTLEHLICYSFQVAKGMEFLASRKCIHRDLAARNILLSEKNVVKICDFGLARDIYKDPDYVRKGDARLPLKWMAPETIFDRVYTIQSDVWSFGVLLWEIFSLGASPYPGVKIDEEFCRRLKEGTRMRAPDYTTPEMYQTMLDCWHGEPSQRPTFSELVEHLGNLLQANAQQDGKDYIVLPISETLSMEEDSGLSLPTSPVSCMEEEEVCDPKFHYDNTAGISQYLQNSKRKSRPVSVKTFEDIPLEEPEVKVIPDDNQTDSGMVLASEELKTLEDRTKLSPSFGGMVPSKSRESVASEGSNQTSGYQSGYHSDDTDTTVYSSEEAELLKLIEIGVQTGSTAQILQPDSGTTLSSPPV

Take `Cc1ccc(Nc2nccc(N(C)c3ccc4c(C)n(C)nc4c3)n2)cc1S(N)(=O)=O` [PAZOPANIB]: the 50% inhibitory concentration (IC50) with HCC1937 is greater than 10 µM; with HUVEC it was 4.6 µM; in the test with MCF7 [9], greater than 10 µM; in the test with MCF7 [10] it was greater than 10 µM; in the test on MDA-MB-231 [14] it was greater than 10 µM. Further, the result in the test with MDA-MB-231 [1], with MDA-MB-231 [2], with MDA-MB-231 [4], in the test with MDA-MB-231 [5], with MCF7 [6] and in the test on MDA-MB-231 [7] was Active. Further, the result with MDA-MB-231 [11], in the test with MCF7 [12] and with MCF7 [13] was Active. Moreover, the inhibition result (in test [3]; with MDA-MB-231 [8]) was “Active” in each case.
